Values quoted from earlier work in patent US12090135B2, “Neutral pH compositions of docetaxel and human serum albumin” (Zhuhai Beihai Biotech Co., Ltd., priority 2016, dated 2024).
“Also recorded” adds a separate entry of the source.

Tests used:
[1] = test system: microtubule depolymerization

## CC(=O)O[C@@]12CO[C@@H]1C[C@H](O)[C@@]1(C)C(=O)[C@H](O)C3=C(C)[C@@H](OC(=O)[C@H](O)[C@@H](NC(=O)OC(C)(C)C)c4ccccc4)C[C@@](O)([C@@H](OC(=O)c4ccccc4)[C@H]21)C3(C)C [Docetaxel]
[1]
  Potency in inhibiting microtubule depolymerization relative to paclitaxel: about twice as potent as paclitaxel
other
  Water solubility: practically insoluble in water; also recorded: very poor water solubility
Plasma proteins; in three cancer patients
  in vitro binding to plasma proteins: approximately 97%
Plasma proteins; in vitro studies, mainly to al-acid glycoprotein, albumin, and lipoproteins
  protein bound: about 94%
